From ChEMBL document CHEMBL1140811, “Inhibition of dipeptidyl peptidase-IV (DPP-IV) by atorvastatin” (Bioorg Med Chem Lett, 2008)
Activity calls are given as the source filed them. The rule behind the calls is not given here.

Legend:
[1] = target: Dipeptidyl peptidase 4 (Sus scrofa) (UniProt P22411); assay: Inhibition of pig DPP4 at 500 uM
Dipeptidyl peptidase 4 [2] = target: Dipeptidyl peptidase 4 (Sus scrofa, UniProt P22411); assay: Inhibition of pig DPP4
Dipeptidyl peptidase 4 [3] = target: T1, Dipeptidyl peptidase 4 (Homo sapiens, UniProt P27487); assay: Inhibition of DPP4
Target sequence in this assay (P27487 whole entry): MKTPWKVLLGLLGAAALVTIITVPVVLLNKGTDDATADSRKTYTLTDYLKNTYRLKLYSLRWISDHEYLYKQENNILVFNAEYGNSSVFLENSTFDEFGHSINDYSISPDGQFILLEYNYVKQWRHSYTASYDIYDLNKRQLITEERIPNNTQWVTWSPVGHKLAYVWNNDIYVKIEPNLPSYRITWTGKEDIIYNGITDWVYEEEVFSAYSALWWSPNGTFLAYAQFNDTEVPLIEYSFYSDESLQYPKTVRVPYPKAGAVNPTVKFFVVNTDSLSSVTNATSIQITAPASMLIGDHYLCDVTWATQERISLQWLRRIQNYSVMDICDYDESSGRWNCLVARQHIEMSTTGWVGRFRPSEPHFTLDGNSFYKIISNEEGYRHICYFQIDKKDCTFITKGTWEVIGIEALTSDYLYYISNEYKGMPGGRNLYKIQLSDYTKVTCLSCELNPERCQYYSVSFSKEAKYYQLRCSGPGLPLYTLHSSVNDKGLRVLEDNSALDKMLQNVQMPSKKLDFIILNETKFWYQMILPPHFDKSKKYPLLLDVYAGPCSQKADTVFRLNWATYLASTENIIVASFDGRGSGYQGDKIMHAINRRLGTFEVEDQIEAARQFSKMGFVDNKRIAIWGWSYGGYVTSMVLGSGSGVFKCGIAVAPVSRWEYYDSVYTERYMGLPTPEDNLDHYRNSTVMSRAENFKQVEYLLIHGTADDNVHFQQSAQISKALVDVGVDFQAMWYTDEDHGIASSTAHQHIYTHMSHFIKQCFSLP

Dipeptidyl peptidase 4 [4] = target: T1, Dipeptidyl peptidase 4; assay: Inhibition of DPP4 upto 3.3 mM
Target sequence in this assay (P27487 whole entry, looked up): as the sequence (P27487 whole entry) above

Dipeptidyl peptidase 4 [5] = target: T1, Dipeptidyl peptidase 4; assay: Inhibition of DPP4 at 10 mM
Target sequence in this assay (P27487 whole entry, looked up): as the sequence (P27487 whole entry) above

Dipeptidyl peptidase 4 [6] = target: T1, Dipeptidyl peptidase 4; assay: Inhibition of DPP4 at 30 mM
Target sequence in this assay (P27487 whole entry, looked up): as the sequence (P27487 whole entry) above

Sequence of Dipeptidyl peptidase 4 (Sus scrofa) (P22411 whole entry, looked up): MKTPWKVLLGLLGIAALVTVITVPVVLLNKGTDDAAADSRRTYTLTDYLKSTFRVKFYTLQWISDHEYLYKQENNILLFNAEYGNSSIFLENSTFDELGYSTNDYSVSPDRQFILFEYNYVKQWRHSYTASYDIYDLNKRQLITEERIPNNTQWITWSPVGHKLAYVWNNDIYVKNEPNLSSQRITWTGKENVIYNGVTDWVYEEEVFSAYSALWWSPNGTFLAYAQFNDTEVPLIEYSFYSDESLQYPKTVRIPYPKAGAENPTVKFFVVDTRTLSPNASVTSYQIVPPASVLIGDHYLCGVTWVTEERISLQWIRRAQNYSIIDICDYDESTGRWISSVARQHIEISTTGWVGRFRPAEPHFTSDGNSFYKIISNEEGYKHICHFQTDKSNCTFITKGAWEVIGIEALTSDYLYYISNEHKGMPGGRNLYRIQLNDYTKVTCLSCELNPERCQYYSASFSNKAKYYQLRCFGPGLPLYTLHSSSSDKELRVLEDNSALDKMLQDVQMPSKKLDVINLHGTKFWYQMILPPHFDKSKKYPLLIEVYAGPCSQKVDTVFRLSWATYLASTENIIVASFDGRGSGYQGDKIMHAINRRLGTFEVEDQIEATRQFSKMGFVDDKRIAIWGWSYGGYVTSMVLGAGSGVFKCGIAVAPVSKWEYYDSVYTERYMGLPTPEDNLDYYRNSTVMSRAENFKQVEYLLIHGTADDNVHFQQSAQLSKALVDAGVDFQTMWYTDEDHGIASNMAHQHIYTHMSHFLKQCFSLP
Sequence of Dipeptidyl peptidase 4 (Sus scrofa, UniProt P22411) (P22411 whole entry): as the sequence (P22411 whole entry, looked up) above

## CC(C)c1c(C(=O)Nc2ccccc2)c(-c2ccccc2)c(-c2ccc(F)cc2)n1CC[C@@H](O)C[C@@H](O)CC(=O)O [ATORVASTATIN]
[1]
  inhibition: 66%
Dipeptidyl peptidase 4 [2]
  IC50: 175 µM

## CN(C)C(=N)N=C(N)N [METFORMIN]
Dipeptidyl peptidase 4 [3]
  IC50: 29 µM

## CN(C)C(=N)NC(=N)N
Dipeptidyl peptidase 4 [4]
  Activity: inactive
Dipeptidyl peptidase 4 [5]
  inhibition: 12.7%
Dipeptidyl peptidase 4 [6]
  inhibition: 21.9%

## CC(C)n1c(/C=C/[C@@H](O)C[C@@H](O)CC(=O)O)c(-c2ccc(F)cc2)c2ccccc21
[1]
  inhibition: 8%

## CC(C)c1nc(N(C)S(C)(=O)=O)nc(-c2ccc(F)cc2)c1/C=C/[C@@H](O)C[C@@H](O)CC(=O)O
[1]
  inhibition: 4%
